Reference: PubChem BioAssay (NCI)
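Interpolation was linear, between the two tested concentrations surrounding the appropriate level; five concentrations were tested over 48 hours in 96-well plates. At the TGI there is no net growth.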

What was measured:
Test in all cases: NCI anticancer screen, dose series, 48 h
[1] = test system: RXF 393 renal
[2] = test system: MDA-MB-435
[3] = test system: OVCAR-3 ovarian
[4] = test system: SNB-19 CNS
[5] = test system: HT29 colon
[6] = test system: SW-620 colon
[7] = test system: UACC-257 melanoma
[8] = test system: U251 CNS
[9] = test system: SF-539 CNS
[10] = test system: MDA-MB-231 breast
[11] = test system: K-562 leukemia
[12] = test system: MCF7 breast
[13] = test system: SF-268 CNS
[14] = test system: HCC-2998 colon
[15] = test system: CCRF-CEM leukemia
[16] = test system: MDA-N
[17] = test system: HCT-15 colon
[18] = test system: MOLT-4 leukemia
[19] = test system: 786-0 renal
[20] = test system: MALME-3M melanoma
[21] = test system: OVCAR-5 ovarian
[22] = test system: IGROV1 ovarian
[23] = test system: SK-MEL-5 melanoma
[24] = test system: T-47D breast
[25] = test system: SK-OV-3 ovarian
[26] = test system: SN12C renal
[27] = test system: HS 578T breast
[28] = test system: COLO 205 colon
[29] = test system: HL-60(TB) leukemia
[30] = test system: M14 melanoma
[31] = test system: PC-3 prostate
[32] = test system: CAKI-1 renal
[33] = test system: UO-31 renal
[34] = test system: RPMI-8226 leukemia
[35] = test system: OVCAR-8 ovarian
[36] = test system: NCI-H460 lung
[37] = test system: UACC-62 melanoma
[38] = test system: A498 renal
[39] = test system: HCT-116 colon
[40] = test system: NCI/ADR-RES ovarian
[41] = test system: TK-10 renal
[42] = test system: HOP-92 NSCLC
[43] = test system: OVCAR-4 ovarian
[44] = test system: EKVX NSCLC
[45] = test system: ACHN renal
[46] = test system: HOP-62 NSCLC
[47] = test system: KM12 colon
[48] = test system: LOX IMVI melanoma
[49] = test system: A549 NSCLC
[50] = test system: NCI-H522 lung
[51] = test system: NCI-H23 lung
[52] = test system: BT-549 breast
[53] = test system: DU-145 prostate
[54] = test system: SF-295 CNS
[55] = test system: SR leukemia
[56] = test system: NCI-H226 lung
[57] = test system: SNB-75 CNS
[58] = test system: SK-MEL-28 melanoma
[59] = test system: SK-MEL-2 melanoma

## CSc1s[s+]c(SC)c1-c1ccccc1
[1]
  TGI: 30.4 µM
[2]
  TGI: 36 µM
[3]
  TGI: 37.6 µM
[4]
  TGI: 35.1 µM
[5]
  TGI: 32.3 µM
[6]
  TGI: 34.9 µM
[7]
  TGI: 27.8 µM
[8]
  TGI: 41.1 µM
[9]
  TGI: 32.4 µM
[10]
  TGI: 31.2 µM
[11]
  TGI: 50.3 µM
[12]
  TGI: 33.7 µM
[13]
  TGI: 43 µM
[14]
  TGI: 21.5 µM
[15]
  TGI: 81.4 µM
[16]
  TGI: 32.7 µM
[17]
  TGI: 41.5 µM
[18]
  TGI: > 100 µM
[19]
  TGI: 28.1 µM
[20]
  TGI: 24.6 µM
[21]
  TGI: 31.2 µM
[22]
  TGI: > 100 µM
[23]
  TGI: 29.3 µM
[24]
  TGI: > 100 µM
[25]
  TGI: 38 µM
[26]
  TGI: 35 µM
[27]
  TGI: 86.9 µM
[28]
  TGI: 32.4 µM
[29]
  TGI: 60.6 µM
[30]
  TGI: 30.8 µM
[31]
  TGI: 54.1 µM
[32]
  TGI: 36.4 µM
[33]
  TGI: 46.3 µM
[34]
  TGI: 56.7 µM
[35]
  TGI: 40.3 µM
[36]
  TGI: > 100 µM
[37]
  TGI: 28.3 µM
[38]
  TGI: 47.3 µM
[39]
  TGI: 29.5 µM
[40]
  TGI: 42.1 µM
[41]
  TGI: 32.4 µM
[42]
  TGI: 33.6 µM
[43]
  TGI: 17.9 µM
[44]
  TGI: 33 µM
[45]
  TGI: 32.8 µM
[46]
  TGI: 29.4 µM
[47]
  TGI: 33.8 µM
[48]
  TGI: 52 µM
[49]
  TGI: > 100 µM
[50]
  TGI: 27.9 µM
[51]
  TGI: 34.7 µM
[52]
  TGI: 28.2 µM
[53]
  TGI: > 100 µM
[54]
  TGI: 36.9 µM

## Cc1cccc(N2CCN(S(=O)(=O)c3ccc(Cl)cc3)C2=N)c1C
[1]
  TGI: > 100 µM
[2]
  TGI: > 100 µM
[4]
  TGI: > 100 µM
[5]
  TGI: > 100 µM
[6]
  TGI: > 100 µM
[7]
  TGI: > 100 µM
[8]
  TGI: > 100 µM
[9]
  TGI: > 100 µM
[10]
  TGI: > 100 µM
[11]
  TGI: > 100 µM
[12]
  TGI: > 100 µM
[13]
  TGI: > 100 µM
[55]
  TGI: > 100 µM
[16]
  TGI: > 100 µM
[18]
  TGI: > 100 µM
[19]
  TGI: > 100 µM
[21]
  TGI: > 100 µM
[22]
  TGI: 99.3 µM
[23]
  TGI: > 100 µM
[24]
  TGI: > 100 µM
[25]
  TGI: > 100 µM
[26]
  TGI: > 100 µM
[28]
  TGI: > 100 µM
[30]
  TGI: > 100 µM
[32]
  TGI: > 100 µM
[33]
  TGI: > 100 µM
[34]
  TGI: > 100 µM
[35]
  TGI: > 100 µM
[37]
  TGI: > 100 µM
[38]
  TGI: > 100 µM
[39]
  TGI: > 100 µM
[56]
  TGI: > 100 µM
[40]
  TGI: > 100 µM
[57]
  TGI: > 100 µM
[41]
  TGI: > 100 µM
[45]
  TGI: > 100 µM
[47]
  TGI: > 100 µM
[58]
  TGI: > 100 µM
[49]
  TGI: > 100 µM
[51]
  TGI: > 100 µM
[52]
  TGI: > 100 µM
[53]
  TGI: > 100 µM
[54]
  TGI: > 100 µM

## Cc1nc(C(N)=S)sc1C(=O)CC(=O)C(=O)Nc1cccc(Cl)c1C
[1]
  TGI: > 100 µM
[2]
  TGI: > 100 µM
[3]
  TGI: > 100 µM
[4]
  TGI: > 100 µM
[5]
  TGI: > 100 µM
[6]
  TGI: > 100 µM
[7]
  TGI: > 100 µM
[8]
  TGI: > 100 µM
[9]
  TGI: > 100 µM
[10]
  TGI: > 100 µM
[11]
  TGI: > 100 µM
[12]
  TGI: > 100 µM
[13]
  TGI: > 100 µM
[14]
  TGI: > 100 µM
[15]
  TGI: > 100 µM
[55]
  TGI: > 100 µM
[16]
  TGI: > 100 µM
[17]
  TGI: > 100 µM
[18]
  TGI: > 100 µM
[19]
  TGI: > 100 µM
[20]
  TGI: > 100 µM
[21]
  TGI: > 100 µM
[22]
  TGI: > 100 µM
[23]
  TGI: > 100 µM
[24]
  TGI: > 100 µM
[25]
  TGI: > 100 µM
[26]
  TGI: > 100 µM
[27]
  TGI: > 100 µM
[29]
  TGI: > 100 µM
[30]
  TGI: > 100 µM
[31]
  TGI: > 100 µM
[32]
  TGI: > 100 µM
[33]
  TGI: > 100 µM
[34]
  TGI: > 100 µM
[35]
  TGI: > 100 µM
[36]
  TGI: > 100 µM
[37]
  TGI: > 100 µM
[38]
  TGI: > 100 µM
[39]
  TGI: > 100 µM
[56]
  TGI: > 100 µM
[40]
  TGI: > 100 µM
[57]
  TGI: > 100 µM
[41]
  TGI: > 100 µM
[42]
  TGI: > 100 µM
[43]
  TGI: > 100 µM
[44]
  TGI: > 100 µM
[45]
  TGI: > 100 µM
[46]
  TGI: > 100 µM
[47]
  TGI: > 100 µM
[58]
  TGI: > 100 µM
[48]
  TGI: > 100 µM
[49]
  TGI: > 100 µM
[50]
  TGI: > 100 µM
[51]
  TGI: > 100 µM
[59]
  TGI: > 100 µM
[52]
  TGI: > 100 µM
[54]
  TGI: > 100 µM

## CCOC(=O)C(Cc1c(-c2[nH]c3ccccc3c2CC(NC(=O)CNC(C)=O)C(=O)OCC)[nH]c2ccccc12)NC(=O)CNC(C)=O (stereo unspecified)
[2]
  TGI: > 100 µM
[3]
  TGI: > 100 µM
[4]
  TGI: > 100 µM
[5]
  TGI: > 100 µM
[6]
  TGI: > 100 µM
[7]
  TGI: 73.5 µM
[8]
  TGI: > 100 µM
[10]
  TGI: 40.6 µM
[13]
  TGI: > 100 µM
[14]
  TGI: 47.8 µM
[15]
  TGI: > 100 µM
[55]
  TGI: > 100 µM
[16]
  TGI: > 100 µM
[17]
  TGI: > 100 µM
[18]
  TGI: > 100 µM
[20]
  TGI: 38.2 µM
[21]
  TGI: > 100 µM
[22]
  TGI: > 100 µM
[23]
  TGI: > 100 µM
[25]
  TGI: > 100 µM
[26]
  TGI: > 100 µM
[27]
  TGI: > 100 µM
[28]
  TGI: 35.4 µM
[30]
  TGI: > 100 µM
[31]
  TGI: > 100 µM
[32]
  TGI: > 100 µM
[33]
  TGI: > 100 µM
[34]
  TGI: > 100 µM
[36]
  TGI: > 100 µM
[37]
  TGI: > 100 µM
[38]
  TGI: > 100 µM
[39]
  TGI: > 100 µM
[57]
  TGI: 93.6 µM
[41]
  TGI: > 100 µM
[42]
  TGI: 85.2 µM
[43]
  TGI: > 100 µM
[44]
  TGI: > 100 µM
[46]
  TGI: > 100 µM
[47]
  TGI: > 100 µM
[58]
  TGI: > 100 µM
[49]
  TGI: > 100 µM
[50]
  TGI: 88.8 µM
[51]
  TGI: > 100 µM
[59]
  TGI: 39.9 µM
[52]
  TGI: > 100 µM
[53]
  TGI: > 100 µM
[54]
  TGI: > 100 µM
